Data taken from PMC8708390, “Fatty Acid Modification of the Anticancer Peptide LVTX-9 to Enhance Its Cytotoxicity against Malignant Melanoma Cells” (Toxins, 2021).
Where a SMILES comes first, the peptide text is derived from it. The star is where a group is joined. Arachidoyl = CCCCCCCCCCCCCCCCCCCC(=O)*; Stearoyl = CCCCCCCCCCCCCCCCCC(=O)*; Palmitoyl = CCCCCCCCCCCCCCCC(=O)*; Myristoyl = CCCCCCCCCCCCCC(=O)*; Lauroyl = CCCCCCCCCCCC(=O)*

Columns and labels:
B16-F10 cells [1] = experiment: CCK-8 cell viability assay, B16-F10 cells; assay type: cell-based, mouse; conditions: 1 μM
Experimental: Mouse skin melanoma cells (B16-F10) were cultured in RPMI-1640 (Gibco), and mouse fibroblast cells (L-929), human lung carcinoma cells (A549), mouse breast cells (4T1), human hepatocarcinoma cells (HepG2), and human cervical carcinoma cells (Hela) were cultured in Dulbecco’s Modified Eagle Medium (DMEM, Gibco). All culture medium contained 10% fetal bovine serum (serum, Gibco), 100 U/mL of penicillin, and […] of streptomycin at 37 °C with 5% CO2.
Cell viability was quantified using a CCK-8 assay. At first, cells were seeded into a 96-well plate at approximately 2 × 10^3 cells/well. The following day, we created a 2-fold dilution series of each peptide using fresh medium (with or without 10% serum) for the treated cells, and cell viability was detected at 450 nm via a CCK-8 assay using an Absorbance Microplate Reader (BioTek Instruments, Winooski, VT, USA) following 24 h of drug incubation. The activity curves and IC50 values of the peptides were visualized using GraphPad prism 5.0.

B16-F10 cells [2] = experiment: LDH leakage assay; assay type: cell-based, mouse; conditions: 12.5 μM, 24 h, absorbance 490 nm, n = 3
Experimental: At first, the B16-F10 cells were cultured in 96-well plates for 24 h at approximately 2 × 10^3 cells/well. Subsequently, the cells were treated for 24 h with LVTX-9 or LVTX-9-C18 with a series of concentration gradients. LDH leakage detection was detected using an LDH Cytotoxicity Assay Kit according to the manufacturer’s instructions (Beyotime, Shanghai, China. C0017). The absorption was measured using an Absorbance Microplate Reader (BioTek Instruments) at 490 nm. The LDH release (%) of peptides was calculated by GraphPad prism 5.0.

B16-F10 cells [3] = experiment: Colony formation assay; assay type: cell-based, mouse; conditions: 1 μM, 7 days, crystal violet, mean ± SD, n = 3, control group 51 ± 12.0, p = 0.0198 vs control
Experimental: To detect the proliferation of B16-F10 cells treated with LVTX-9 and LVTX-9-C18 at low concentrations, digested cells were counted using a Cellometer K2 and seeded into a 12-well plate with approximately 100 cells per well. After 36 h, cells were treated with LVTX-9 (10 μM) and LVTX-9-C18 (1 μM), then incubated for 7 days at 37 °C in a humidified 5% CO2 atmosphere. Visible colonies were stained with 0.5% crystal violet and photographically recorded. The colony formation rates were calculated, and curves were manufactured by GraphPad prism 5.0.

B16-F10 cells [4] = experiment: Scanning electron microscopy of cell membrane; assay type: cell-based, mouse; conditions: 5 μM, 24 h
Experimental: The morphologic changes of the cell membrane of B16-F10 cells treated with peptides were observed by SEM [14]. The cells were seeded on coverslips and placed into a six-well plate, then treated with LVTX-9 (50 μM) and LVTX-9-C18 (5 μM) for 24 h. After incubation, the B16-F10 cells were washed with sterile PBS gently three times and fixed with 2 mL of 2.5% glutaraldehyde solution in each well for 4 h at room temperature. Then, the fixed cells were dehydrated with a series of ethanol concentrations. We dried the samples with a Critical Point Dryer and coated them with gold plating before observation. A scanning electron microscope (Hitachi Su8010, Tokyo, Japan) was used to examine the prepared samples.

B16-F10 cells [5] = experiment: Trypan blue staining; assay type: cell-based, mouse; conditions: 5 μM, 24 h, 0.04% trypan blue 4 min
Experimental: B16-F10 cells were seeded into a 48-well plate (2 × 10^3 cells/well) for 24 h and treated with LVTX-9 (50 μM) and LVTX-9-C18 (5 μM) for 24 h. The cells were washed with PBS gently and stained with 0.04% Trypan blue for 4 min. Dead cells were stained blue.

[6] = Dynamic light scattering (hydrodynamic size, PDI, zeta potential); assay type: physicochemical; conditions: 100 µM in ultrapure water, 25 °C, repeated three times
Experimental: (§1) Dynamic light scattering (DLS) of Zetasizer Nano ZSP (Malvern Instruments, Malvern, UK) apparatus was used to determine the hydrodynamic size and zeta potential of LVTX-9 and LVTX-9-C18. The peptides concentrations were diluted to 100 µM with ultrapure water with a final volume of 1 mL. The procedure ran at 25 °C, with each experiment repeated three times. The secondary structures of LVTX-9 and LVTX-9-C18 were determined to be in line with the previous protocol. The peptide concentrations were then diluted to 100 µM with ultrapure water and 100 mM of SDS was added in a final volume of 250 μL. The procedure was carried out at 25 °C. CD spectra were recorded between 180 nm and 280 nm on a Jasco J-815 CD spectrometer.

[7] = Circular dichroism secondary structure; assay type: physicochemical; conditions: 100 µM, 25 °C, 180-280 nm
Experimental: as §1

[8] = RP-HPLC retention time as measure of hydrophobicity; assay type: physicochemical; conditions: chromatographic, Vydac C18 300 Å 4.6 × 250 mm, 1.0 mL/min, gradient 30-100% acetonitrile/0.1% TFA, 215 nm, column 25 ± 5 °C; maximum height of peak
Experimental: Peptides were synthesized using the Fmoc SPPS methods. Briefly, the peptide LVTX-9 (AC-[…]-amide) was prepared on Rink Amide AM resin at a 0.2 mmol scale. A 4-fold excess of the Fmoc-protected amino acids was coupled with the Rink Amide AM resin using HCTU and HOBT as the activating agents in 5% NMM/DMF. After the synthesis of LVTX-9, the N-terminal Fmoc group was removed using 20% piperidine. As in the previous steps, a series of fatty acids (C12-C20) was activated in HCTU and HOBT using 5% NMM/DMF, and coupled to peptidyl resin for 2 h. Peptides were cleaved using trifluoroacetic acid (TFA)/thioanisole (TIS)/anisole (95:3:2 (v/v)) for 2.5 h, and the collected lysate was precipitated in cold diethyl ether three times. The precipitate was air-dried naturally. Next, the obtained crude products were purified using RP-HPLC (C18, 4.6 mm × 250 mm) on the basis of a 0.1% TFA/acetonitrile gradient from 30% to 100% in 46 min. Then, we collected the eluted peptides and determined the molecular mass using MALDI-TOF MS (AB, SCIEX, Waltham, MA, USA).
Figure 2 Purification and identification of five lipopeptides using RP-HPLC and MALDL-TOF MS: The purification of (A) LVTX-9-C12, (B) LVTX-9-C14, (C) LVTX-9-C16, (D) LVTX-9-C18, and (E) LVTX-9-C20 was performed using RP-HPLC (column, Vydac, C18, 300 Å, 4.6 × 250 mm). The lipopeptides were separated at a flow rate of 1.0 mL/min under a gradient of 30–100% acetonitrile/0.1% TFA. The elution of lipopeptides was monitored at 215 nm. Identification of (F) LVTX-9-C12, (G) LVTX-9-C14, (H) LVTX-9-C16, (I) LVTX-9-C18, and (J) LVTX-9-C20 by MALDI-TOF MS, respectively. The red star (*) represents the target peak. […]
Table S1. Purification gradient of peptides.
Time (min) Flow Rate (mL/min) A% B%
Wavelength: 215 nm/280 nm, column temperature: 25 ± 5 ℃, A: ddH2O (0.1% TFA), B: acetonitrile
(1 picture or pasted object on this page, not shown here)

B16-F10 tumor spheroids = experiment: Toxicity in 3D tumor spheroids; assay type: cell-based, mouse; conditions: 20 μM, 3 days
Experimental: To further study the toxicity of LVTX-9 and LVTX-9-C18 in vitro, B16-F10 tumor spheroids, as 3D tumor models, were cultured according to protocols in the literature. Briefly, B16-F10 cells were seeded into an ultra-low attachment, 96-well, round-bottom plate (Corning) and cultured at 37 °C for 3–4 days. Then, the B16-F10 tumor spheroids were treated with 50 or 25 μM of LVTX-9 and 20 or 10 μM of LVTX-9-C18 in the RPMI-1640 supplied with 10% serum for 3 days. Subsequently, images were taken on days 0 and 3, and the cell viability was measured using a CellTiter-Glo 3D Cell Viability Assay (G9683).

CCCCCCCCCCCCCCCCCC(=O)N[C@@H](C)C(=O)N[C@@H](CO)C(=O)N[C@H](C(=O)NCC(=O)N[C@@H](C)C(=O)N[C@@H](CC(C)C)C(=O)N[C@H](C(=O)N[C@@H](CCC(N)=O)C(=O)N[C@@H](CCCCN)C(=O)N[C@@H](C)C(=O)N[C@H](C(=O)N[C@@H](C)C(=O)N[C@@H](CC(C)C)C(=O)N[C@H](C(=O)N[C@@H](CCCCN)C(=O)N[C@@H](C)C(=O)N[C@@H](CCCCN)C(=O)N[C@@H](C)C(=O)N[C@@H](C)C(N)=O)[C@@H](C)CC)[C@@H](C)CC)[C@@H](C)CC)[C@@H](C)CC [LVTX-9-C18] (Stearoyl-ASIGALIQKAIALIKAKAA-NH2)
cytotoxic effect on B16-F10 cells at 1 μM (B16-F10 cells [1]): no significant cytotoxic effect | LDH release at 12.5 μM (B16-F10 cells [2]): ~ 40% | colony number at 1 μM (B16-F10 cells [3]): 26 ± 2.9 | cell membrane morphology by SEM at 5 μM (B16-F10 cells [4]): totally disorganized or even absent | trypan blue staining at 5 μM (B16-F10 cells [5]): stained blue | PDI (hydrodynamic size, DLS) [6]: 0.64 ± 0.1369 | zeta potential ([6]; p = 0.0084): significantly higher than that of LVTX-9 | secondary structure (CD) in 100 mM of SDS ([7]; 100 mM SDS): α-helical conformation | secondary structure (CD) in ultrapure water ([7]; ultrapure water): α-helical conformation | TR (retention time, RP-HPLC; indicates the hydrophobicity of the peptides) [8]: 41.89 min | cell viability of B16-F10 tumor spheroids at 20 μM (B16-F10 tumor spheroids; CellTiter-Glo 3D Cell Viability Assay, n = 4, p < 0.0001): notably reduced the cell viability | growth (volume) of B16-F10 tumor spheroids at 20 μM (B16-F10 tumor spheroids; RPMI-1640 with 10% serum, p = 0.0072): significantly suppressed

CCCCCCCCCCCCCCCC(=O)N[C@@H](C)C(=O)N[C@@H](CO)C(=O)N[C@H](C(=O)NCC(=O)N[C@@H](C)C(=O)N[C@@H](CC(C)C)C(=O)N[C@H](C(=O)N[C@@H](CCC(N)=O)C(=O)N[C@@H](CCCCN)C(=O)N[C@@H](C)C(=O)N[C@H](C(=O)N[C@@H](C)C(=O)N[C@@H](CC(C)C)C(=O)N[C@H](C(=O)N[C@@H](CCCCN)C(=O)N[C@@H](C)C(=O)N[C@@H](CCCCN)C(=O)N[C@@H](C)C(=O)N[C@@H](C)C(N)=O)[C@@H](C)CC)[C@@H](C)CC)[C@@H](C)CC)[C@@H](C)CC [LVTX-9-C16] (Palmitoyl-ASIGALIQKAIALIKAKAA-NH2)
TR (retention time, RP-HPLC; indicates the hydrophobicity of the peptides) [8]: 40.21 min

CCCCCCCCCCCC(=O)N[C@@H](C)C(=O)N[C@@H](CO)C(=O)N[C@H](C(=O)NCC(=O)N[C@@H](C)C(=O)N[C@@H](CC(C)C)C(=O)N[C@H](C(=O)N[C@@H](CCC(N)=O)C(=O)N[C@@H](CCCCN)C(=O)N[C@@H](C)C(=O)N[C@H](C(=O)N[C@@H](C)C(=O)N[C@@H](CC(C)C)C(=O)N[C@H](C(=O)N[C@@H](CCCCN)C(=O)N[C@@H](C)C(=O)N[C@@H](CCCCN)C(=O)N[C@@H](C)C(=O)N[C@@H](C)C(N)=O)[C@@H](C)CC)[C@@H](C)CC)[C@@H](C)CC)[C@@H](C)CC [LVTX-9-C12] (Lauroyl-ASIGALIQKAIALIKAKAA-NH2)
TR (retention time, RP-HPLC; indicates the hydrophobicity of the peptides) [8]: 36.52 min

CCCCCCCCCCCCCC(=O)N[C@@H](C)C(=O)N[C@@H](CO)C(=O)N[C@H](C(=O)NCC(=O)N[C@@H](C)C(=O)N[C@@H](CC(C)C)C(=O)N[C@H](C(=O)N[C@@H](CCC(N)=O)C(=O)N[C@@H](CCCCN)C(=O)N[C@@H](C)C(=O)N[C@H](C(=O)N[C@@H](C)C(=O)N[C@@H](CC(C)C)C(=O)N[C@H](C(=O)N[C@@H](CCCCN)C(=O)N[C@@H](C)C(=O)N[C@@H](CCCCN)C(=O)N[C@@H](C)C(=O)N[C@@H](C)C(N)=O)[C@@H](C)CC)[C@@H](C)CC)[C@@H](C)CC)[C@@H](C)CC [LVTX-9-C14] (Myristoyl-ASIGALIQKAIALIKAKAA-NH2)
TR (retention time, RP-HPLC; indicates the hydrophobicity of the peptides) [8]: 36.15 min

CCCCCCCCCCCCCCCCCCCC(=O)N[C@@H](C)C(=O)N[C@@H](CO)C(=O)N[C@H](C(=O)NCC(=O)N[C@@H](C)C(=O)N[C@@H](CC(C)C)C(=O)N[C@H](C(=O)N[C@@H](CCC(N)=O)C(=O)N[C@@H](CCCCN)C(=O)N[C@@H](C)C(=O)N[C@H](C(=O)N[C@@H](C)C(=O)N[C@@H](CC(C)C)C(=O)N[C@H](C(=O)N[C@@H](CCCCN)C(=O)N[C@@H](C)C(=O)N[C@@H](CCCCN)C(=O)N[C@@H](C)C(=O)N[C@@H](C)C(N)=O)[C@@H](C)CC)[C@@H](C)CC)[C@@H](C)CC)[C@@H](C)CC [LVTX-9-C20] (Arachidoyl-ASIGALIQKAIALIKAKAA-NH2)
TR (retention time, RP-HPLC; indicates the hydrophobicity of the peptides) [8]: 43.06 min
